“And” between values parts separate entries of the source, which are not always exact repeats. Equal values may be shown once.
Experiments:
[1] = tested on: HIV-1 (patient-derived RHIN segment); test: phenotypic drug resistance test, resistance test vectors with patient-derived RHIN segment, luciferase, 293 cells; format: cell-based
Excerpt: Patient-derived segment(s) corresponding to the entire pol gene, encoding HIV protease, reverse transcriptase (including RNAse H), and integrase (hereinafter “POL”), the portion of pol encoding amino acids 1-305 of reverse transcriptase (hereinafter “PR-RT”), the portion of pol encoding amino acids 319-440 of reverse transcriptase (including RNAse H), and integrase (hereinafter “RHIN”), were amplified by the reverse transcription-polymerase chain reaction method (RT-PCR) using viral RNA isolated from viral particles present in the plasma or serum of HIV-infected individuals as described below. The portion of pol encoding protease, amino acids 1-531 of reverse transcriptase (including RNase H) (hereinafter “PRRT-RH”), or the portion of pol encoding protease, reverse transcriptase (including RNAse H) and integrase (hereinafter “PRRT-RHIN”), were assembled from amplicons described above by standard recombinant DNA techniques involving a KpnI restriction site at amino acid 400 or a Pin A1 site at amino acid 315.
Virus was pelleted by centrifugation at 20,400×g for 60 min from plasma (typically, 1 ml) prepared from blood samples collected in evacuated tubes containing either EDTA, acid-citrate dextrose, or heparin as an anticoagulant. Virus particles were disrupted by resuspending the pellets in 200 [1.1 of lysis buffer (4 M guanidine thiocyanate, 0.1 M Tris HCl (pH 8.0), 0.5% sodium lauryl sarcosine, 1% dithiothreitol). RNA was extracted from viral lysates by using oligo(dT) linked to magnetic beads (Dynal, Oslo, Norway). Reverse transcription was performed with Superscript III (Invitrogen) at 50 degrees for 1 hour using primer 1.
From the resultant cDNA either POL or RHIN sequences were amplified using the Advantage High Fidelity PCR kit (BD Biosciences; Clontech). POL amplification products are made using forward Primer 3 containing an Apal site and reverse Primer 4 containing a Xho 1 site. RHIN amplification products are made using forward Primer 2 containing a P1NA1 site and reverse Primer 4 containing a Xho 1 site.
A retroviral vector designed to measure antiretroviral drug susceptibility was constructed by using an infectious molecular clone of HIV-1. The vector, referred to herein as an indicator gene viral vector (IGVV), is replication defective and contains a luciferase expression cassette inserted within a deleted region of the envelope (env) gene. The IGVV is described in U.S. Pat. No. 5,837,464 (International Publication Number WO 97/27319) which is hereby incorporated by reference in its entirety. This retroviral vector was further modified to allow insertion of either the entire pol gene (POL) or the portion of poi encoding amino acids 319-440 of reverse transcriptase, the RNase H portion of reverse transcriptase, and integrase (REIN) by engineering an Xho l restriction enzyme recognition site into vif. Prior to doing this, an Xho 1 site in nef was deleted. Resistance Test vectors (RTVs) were constructed by incorporating amplified POL or RHIN into the IGVV by using Apal and Xhol or PinAI and Xho 1 restriction sites respectively. RTVs were prepared as libraries (pools) in order to capture and preserve the pol or RHIN sequence heterogeneity of the virus in the patient. POL amplification products were digested with Apal and Xhol, purified by agarose gel electrophoresis, and ligated to ApaI- and Xhol-digested IGVV DNA. RHIN amplification products were digested with PinAI and Xho/, purified by agarose gel electrophoresis, and ligated to PinAI and Xhol-digested IGVV DNA. Ligation reactions were used to transform competent Escherichia coli (Invitrogen, Carlsbad, Calif.). An aliquot of each transformation was plated onto agar, and colony counts were used to estimate the number of patient-derived segments represented in each RTV library. RTV libraries that comprised less than 50 members are not considered representative of the patient virus. […]

[2] = tested on: HIV-1 NL4-3 site-directed reverse transcriptase mutants; test: phenotypic drug resistance test, site-directed reverse transcriptase mutants in NL4-3 background (POL segment assay); format: cell-based; settings: for resistance versus known NNRTI mutation(s) alone: any of N348I, T369I, E399D combined with G190S, K103N, or K103R and V179D, NL4-3 background
Description: Further, a site directed double mutant T3691/K103N was generated using conventional techniques and tested for resistance to an NNRTI using the methods described above.
To assess the effects of mutations at positions 348, 369, and 399, a series of site-directed mutants were constructed in an wild-type (NL4-3) background. The NNRTI susceptibility phenotypes of these mutants were then determined using the POL segment assay according to Example 2.
In particular, site-directed mutants were constructed in an NL4-3 background comprising N348I, T369I, E399D, or the combination of N3481 and T369I.
Next, a series of site-directed mutants were constructed to assess the effects of combinations of N3481, T369I, and E399D with previously recognized NNRTI resistance mutations. In particular, mutants comprising N348I, T369I, and E399D were made in combination with G190S, with K103N, and with the combination of K103R and V179D. The effects of these combinations on DLV, EFV, and NVP susceptibility were tested using the POL segment assay according to the method describe in Example 2. The results from these experiments are presented as FIG. 10.
To assess the specific effects of mutations at positions 348, 369, and 399, a series of site-directed mutants were constructed in an wild-type (NL4-3) background. The AZT susceptibility phenotype of these mutants were then determined with a POL segment assay according to Example 2.
In particular, site-directed mutants were constructed in an NL4-3 background comprising N348I, T3691, E399D, or the combination of N348I and T3691. The FC in AZT susceptibility for each mutant is shown as FIG. 13.

[3] = Sample 47 (K103K/N, V106V/A, Y181Y/C, G190G/A)
[4] = Sample 58 (K103N, Y181Y/C, G190G/A)
[5] = Sample 62 (K103H, P225P/H, T369T/I)
[6] = Sample 90 (K103K/N, Y181C, G190A)

`O=C1Nc2ccc(Cl)cc2[C@@](C#CC2CC2)(C(F)(F)F)O1` [EFV, efavirenz] was tested, and the “fold change in IC50, RHIN” value ([1]; Sample 31 (K103N)) was 1.1 fold, the “fold change in IC50, RHIN” value ([1]; Sample 33 (K103S)) was 0.7 fold and the “fold change in IC50, RHIN” value ([1]; Sample 34) was 1.0 fold. The “fold change in IC50, RHIN” value ([1]; Sample 35 (K103H)) was 0.7 fold, the “fold change in IC50, RHIN” value ([1]; Sample 36 (K103K/W)) was 1.0 fold and the “fold change in IC50, RHIN” value ([1]; Sample 38 (K103N)) was 0.5 fold. For the same compound, the “fold change in IC50, RHIN” value ([1]; Sample 39 (T369A)) was 0.9 fold, the “fold change in IC50, RHIN” value ([1]; Sample 42 (G190G/A)) was 0.4 fold and the “fold change in IC50, RHIN” value ([1]; Sample 45) was 1.0 fold. The “fold change in IC50, RHIN” value [1, 3] was 0.5 fold, the “fold change in IC50, RHIN” value ([1]; Sample 50 (K103N)) was 0.5 fold and the “fold change in IC50, RHIN” value ([1]; Sample 51) was 0.4 fold. For the same compound, the “fold change in IC50, RHIN” value ([1]; Sample 52) was 1.0 fold, the “fold change in IC50, RHIN” value [1, 4] was 0.9 fold and the “fold change in IC50, RHIN” value [1, 5] was 1.8 fold and 1.83 fold. The “fold change in IC50, RHIN” value ([1]; Sample 64 (T369T/A)) was 0.3 fold, the “fold change in IC50, RHIN” value ([1]; Sample 69) was 0.8 fold and the “fold change in IC50, RHIN” value ([1]; Sample 72) was 1.0 fold. For the same compound, the “fold change in IC50, RHIN” value ([1]; Sample 80 (K103K/N, Y181Y/C)) was 0.52 fold, the “fold change in IC50, RHIN” value ([1]; Sample 81 (K103N, P225H)) was 1.2 fold and the “fold change in IC50, RHIN” value ([1]; Sample 84) was 0.5 fold. For the same compound, the “fold change in IC50, RHIN” value ([1]; Sample 85) was 1.2 fold, the “fold change in IC50, RHIN” value ([1]; Sample 87) was 1.3 fold and the “fold change in IC50, RHIN” value ([1]; Sample 89 (L1001, K103N)) was 1.2 fold. For the same compound, the “fold change in IC50, RHIN” value [1, 6] was 0.7 fold, the “fold change in IC50, RHIN” value ([1]; Sample 92) was 0.3 fold and the “fold change in IC50, RHIN” value ([1]; Sample 93) was 0.9 fold. For the same compound, the “resistance versus known NNRTI mutation(s) alone” value [2] was “increased”.

With `Cc1ccnc2c1NC(=O)c1cccnc1N2C1CC1` [NVP, nevirapine] the FC ([1]; Pool of patient sample 62, RT codons mutated: N348 (0.5), T369 (0.5), T377, T403) was 7.61, the “fold change in IC50, RHIN” value ([1]; Sample 31 (K103N)) was 2.1 fold and the “fold change in IC50, RHIN” value ([1]; Sample 33 (K103S)) was 1.0 fold. The “fold change in IC50, RHIN” value ([1]; Sample 34) was 0.7 fold, the “fold change in IC50, RHIN” value ([1]; Sample 35 (K103H)) was 1.2 fold and the “fold change in IC50, RHIN” value ([1]; Sample 36 (K103K/W)) was 1.0 fold. The “fold change in IC50, RHIN” value ([1]; Sample 38 (K103N)) was 0.5 fold, the “fold change in IC50, RHIN” value ([1]; Sample 39 (T369A)) was 2.6 fold and the “fold change in IC50, RHIN” value ([1]; Sample 42 (G190G/A)) was 0.6 fold. The “fold change in IC50, RHIN” value ([1]; Sample 45) was 1.3 fold, the “fold change in IC50, RHIN” value [1, 3] was 1.0 fold and the “fold change in IC50, RHIN” value ([1]; Sample 50 (K103N)) was 0.6 fold. For the same compound, the “fold change in IC50, RHIN” value ([1]; Sample 51) was 0.6 fold, the “fold change in IC50, RHIN” value ([1]; Sample 52) was 0.9 fold and the “fold change in IC50, RHIN” value [1, 4] was 1.7 fold. For the same compound, the “fold change in IC50, RHIN” value [1, 5] was 7.6 fold and 7.61 fold, the “fold change in IC50, RHIN” value ([1]; Sample 64 (T369T/A)) was 0.4 fold and the “fold change in IC50, RHIN” value ([1]; Sample 69) was 0.9 fold. For the same compound, the “fold change in IC50, RHIN” value ([1]; Sample 72) was 1.6 fold, the “fold change in IC50, RHIN” value ([1]; Sample 80 (K103K/N, Y181Y/C)) was 0.72 fold and the “fold change in IC50, RHIN” value ([1]; Sample 81 (K103N, P225H)) was 1.4 fold. For the same compound, the “fold change in IC50, RHIN” value ([1]; Sample 84) was 0.7 fold, the “fold change in IC50, RHIN” value ([1]; Sample 85) was 2.1 fold and the “fold change in IC50, RHIN” value ([1]; Sample 87) was 1.9 fold. The “fold change in IC50, RHIN” value ([1]; Sample 89 (L1001, K103N)) was 2.7 fold, the “fold change in IC50, RHIN” value [1, 6] was 1.2 fold and the “fold change in IC50, RHIN” value ([1]; Sample 92) was 0.5 fold. For the same compound, the “fold change in IC50, RHIN” value ([1]; Sample 93) was 1.1 fold, the FC ([1]; clone c03a of patient sample 62, RT codons mutated: T377, T403) was 1.64 and the FC ([1]; clone c03b of patient sample 62, RT codons mutated: A355, T369, T377, T403) was 5.51. It also gave an FC ([1]; clone c08 of patient sample 62, RT codons mutated: H315, T369, T377) of 12.98, an FC ([1]; clone c10 of patient sample 62, RT codons mutated: N348, T377, T403) of 28.07 and an FC ([1]; clone c12 of patient sample 62, RT codons mutated: T369, T377, T403) of 9.18. For the same compound, the FC ([1]; clone c14 of patient sample 62, RT codons mutated: Y342, T377, T403, R448) was 6.48, the FC ([1]; clone c15 of patient sample 62, RT codons mutated: N348, Y354, T403, N418) was 2.37 and the FC ([1]; clone c16 of patient sample 62, RT codons mutated: T377, T403, D511 (0.5)) was 2.19. For the same compound, the FC ([1]; clone c18 of patient sample 62, RT codons mutated: A371, T377, T403) was 2.46, the FC ([1]; clone c20 of patient sample 62, RT codons mutated: T377, T403) was 3.97 and the FC ([1]; clone c21 of patient sample 62, RT codons mutated: T377, T403, K550) was 5.16. The FC ([1]; clone c23 of patient sample 62, RT codons mutated: T369, T377, T403) was 10.11, the FC ([1]; clone c24 of patient sample 62, RT codons mutated: T377, T403) was 4.77 and the FC ([1]; clone c26 of patient sample 62, RT codons mutated: T369, T377, T403) was 12.00. For the same compound, the FC ([1]; clone c28 of patient sample 62, RT codons mutated: T377, I393, T403, R448) was 0.54, the “resistance versus known NNRTI mutation(s) alone” value [2] was “increased” and the resistance of mutant ([2]; site-directed double mutant T369I/K103N) was “enhanced resistance”.

Source: patent US8637252B2, “Methods and compositions for determining altered susceptibility of HIV-1 to anti-HIV drugs” (Monogram Biosciences, Inc., priority 2011, dated 2014)
